In patent US20220218679A1, “NOVEL COMPOUNDS AND PHARMACEUTICAL COMPOSITIONS THEREOF FOR THE TREATMENT OF INFLAMMATORY DISORDERS” (Galapagos NV, priority 2019, published 2022) one finds IC50 data, which are given here for 16 compounds.

For orientation: IC50 means the midpoint of a concentration-inhibition curve. Higher therefore signals weaker potency.

Molecules are shown by their SMILES.

The subject of one assay is CL097 triggered TNFα release in human whole blood. Description: Ex vivo human TNFα release inhibition (human whole blood assay). The note with it: CL097 2 μg/mL, 3 h 30 min at 37° C. Type of assay: cell-based. The source says:
4.10.1. Ex Vivo Human IFNα and TNFα Release Inhibition (Human Whole Blood Assay)
The aim of the assay is to evaluate the activity of compounds of the invention on the activated TLR/IRAK-4 pathway in an ex vivo human whole blood setting. Toll-like receptors (TLRs) are pattern recognition receptors that recognize a wide variety of microbial molecules, called pathogen-associated molecular patterns (PAMPs). Human TLR7 and TLR8 recognize imidazoquinoline compounds (e.g., CL097—CAS n #1026249-18-2) and single stranded RNAs as their natural ligands. Activation of TLRs leads to the production of several cytokines (e.g., IFNα, TNFα, IL-8, IL-6) by the TLR agonist-treated cells, whereas IRAK4 leads to the production of IFNα. Cytokine release is used as readout in this assay and represents a measure for the level of inhibition of the TLR/IRAK-4 pathway by the tested compound. It should be noted that in the context of the complete organism, other sources for these cytokines exist that are not dependent on the TLR/IRAK-4 pathway, such as e.g., macrophages (upon activation of the Fcγ receptor (Yan et al., 2012)) or T cells (upon activation of the T cell receptor (Brehm et al., 2005)).
4.10.1.1. Experimental Design
Blood was collected from healthy volunteers into lithium heparin tubes by venipuncture, then gently inverted several times to prevent clotting and incubated for at least 15 min at 37° C. on a rocking mixer shaker. Then, 100 μL of blood was dispensed into polypropylene 96-well microplate and pre-incubated in duplicate with 0.3% DMSO or test compound at different concentrations (from 30 to 0.01 μM, 3-fold dilutions to get 0.3% DMSO at the final) for 15 min at 37° C. After this pre-incubation, blood was triggered with CL097 (2 μg/mL from 1 mg/mL solution in water; InvivoGen, tlrl-c97) for 3 h 30 min at 37° C. Microtubes were centrifuged at 5000×g for 10 min at 4° C. and approximately 40 μL of plasma were collected into a polystyrene 96-well plate. Plasma could be analyzed freshly, within 30 min after triggering, or frozen at −80° C. Finally, the quantification of TNFα and IFNα were performed in the plasma using AlphaLISA Kit for TNFα and IFNα according to the manufacturer's instructions and read on the Ensight (PerkinElmer).
For each blood sample, the TNFα concentrations of the samples were determined from the fit. Data were then expressed a percentage of inhibition PIN for each replicate using the formula:
With mean TNFα with CL097=mean TNFα concentration of replicate samples triggered with CL097; TNFαsample1=TNFα concentration of sample 1; mean TNFα with vehicle=mean TNFα concentration of replicate samples treated with vehicle.
Curve fitting for pIC50 determination were generated using mean PIN±sem. Graphs and pIC50 calculations were derived using Prism 5.03 software (GraphPad).
Compound `COc1cn2nc(CC(F)C(C)(C)O)cc2cc1NC(=O)c1cccn(C2CC2)c1=O` (single isomer, unassigned; enantiomer b) [Compound 26, 1-cyclopropyl-N-[2-(2-fluoro-3-hydroxy-3-methyl-butyl)-6-methoxy-pyrazolo[1,5-a]pyridin-5-yl]-2-oxo-pyridine-3-carboxamide Enantiomer B] yielded an IC50 of 1000 to 5000 nM.

The same assay, now with this note: Homo sapiens, CL097 2 μg/mL, 3 h 30 min at 37° C.
Turning to `CCOc1cn2nc(CCC(C)(C)O)cc2cc1NC(=O)c1cccn(C(F)F)c1=O` [Compound 9, 1-(difluoromethyl)-N-[6-ethoxy-2-(3-hydroxy-3-methyl-butyl)pyrazolo[1,5-a]pyridin-5-yl]-2-oxo-pyridine-3-carboxamide], the IC50 lay in the range of 500 to 1000 nM.

For the compound `COc1cn2nc(CC(F)C(C)(C)O)cc2cc1NC(=O)c1cccn(C2CC2)c1=O` (stereo not shown) [Compound 22, 1-cyclopropyl-N-[2-(2-fluoro-3-hydroxy-3-methyl-butyl)-6-methoxy-pyrazolo[1,5-a]pyridin-5-yl]-2-oxo-pyridine-3-carboxamide], the IC50 fell in the range of 0.1 to 500 nM.

For the compound `[2H]C([2H])([2H])Oc1cn2nc(CCC(C)(C)O)cc2cc1NC(=O)c1cccn(C2CC2)c1=O` [Compound 24, 1-cyclopropyl-N-[2-(3-hydroxy-3-methylbutyl)-6-(trideuteriomethoxy)pyrazolo[1,5-a]pyridin-5-yl]-2-oxopyridine-3-carboxamide], the IC50 was in the range of 0.1 to 500 nM.

Consider `CNC(=O)c1cn2nc(C3CCOCC3)cc2cc1NC(=O)c1cccc(C(F)F)n1` [Compound 15, 5-[[6-(difluoromethyl)pyridine-2-carbonyl]amino]-N-methyl-2-tetrahydropyran-4-yl-pyrazolo[1,5-a]pyridine-6-carboxamide], for which the IC50 is more than 5000 nM.

`[2H]C([2H])([2H])C(O)(CCc1cc2cc(NC(=O)c3cccn(C4CC4)c3=O)c(OC)cn2n1)C([2H])([2H])[2H]` [Compound 23, 1-cyclopropyl-N-[6-methoxy-2-[4,4,4-trideuterio-3-hydroxy-3-(trideuteriomethyl)butyl]pyrazolo[1,5-a]pyridin-5-yl]-2-oxo-pyridine-3-carboxamide] registered a half-inhibitory concentration (IC50) of 0.1 to 500 nM.

For `CC(C)(O)CCc1cc2cc(NC(=O)c3cccc(C(F)(F)F)n3)c(C(N)=O)cn2n1` [Compound 4, 2-(3-hydroxy-3-methylbutyl)-5-[[6-(trifluoromethyl)pyridine-2-carbonyl]amino]pyrazolo[1,5-a]pyridine-6-carboxamide], the IC50 was in the range of 0.1 to 500 nM.

Compound `CCOc1cn2nc(CCC(C)(C)O)cc2cc1NC(=O)c1cccn(C)c1=O` [Compound 18, N-[6-ethoxy-2-(3-hydroxy-3-methyl-butyl)pyrazolo[1,5-a]pyridin-5-yl]-1-methyl-2-oxo-pyridine-3-carboxamide] had an IC50 of 500 to 1000 nM.

In turn, `COc1cn2nc(CCC(C)(C)O)cc2cc1NC(=O)c1cccn(C2CCC2)c1=O` [Compound 21, 1-cyclobutyl-N-[2-(3-hydroxy-3-methyl-butyl)-6-methoxy-pyrazolo[1,5-a]pyridin-5-yl]-2-oxo-pyridine-3-carboxamide] displayed an IC50 of 1000 to 5000 nM.

In turn, `CCOc1cn2nc(CCC(C)(C)O)cc2cc1NC(=O)c1cccn(C2CC2)c1=O` [Compound 17, 1-cyclopropyl-N-[6-ethoxy-2-(3-hydroxy-3-methyl-butyl)pyrazolo[1,5-a]pyridin-5-yl]-2-oxo-pyridine-3-carboxamide] returned an IC50 of 500 to 1000 nM.

Turning to `COc1cn2nc(CCC(C)(C)O)cc2cc1NC(=O)c1cccn(C(F)F)c1=O` [Compound 7, 1-(difluoromethyl)-N-[2-(3-hydroxy-3-methyl-butyl)-6-methoxy-pyrazolo[1,5-a]pyridin-5-yl]-2-oxo-pyridine-3-carboxamide], the IC50 fell in the range of 1000 to 5000 nM.

The compound `COc1cn2nc(CCC(C)(C)O)cc2cc1NC(=O)c1cccn(C)c1=O` [Compound 2, N-[2-(3-hydroxy-3-methylbutyl)-6-methoxypyrazolo[1,5-a]pyridin-5-yl]-1-methyl-2-oxopyridine-3-carboxamide] returned an IC50 of 0.1 to 500 nM.

`COc1cn2nc(CC(F)C(C)(C)O)cc2cc1NC(=O)c1cccn(C2CC2)c1=O` (single isomer, unassigned; enantiomer a) [Compound 25, 1-cyclopropyl-N-[2-(2-fluoro-3-hydroxy-3-methyl-butyl)-6-methoxy-pyrazolo[1,5-a]pyridin-5-yl]-2-oxo-pyridine-3-carboxamide Enantiomer A] returned an IC50 of 500 to 1000 nM.

With `CNC(=O)c1cn2nc(C3CCN(C)CC3)cc2cc1NC(=O)c1cccc(C(F)(F)F)n1` [Compound 12, N-methyl-2-(1-methyl-4-piperidyl)-5-[[6-(trifluoromethyl)pyridine-2-carbonyl]amino]pyrazolo[1,5-a]pyridine-6-carboxamide], the IC50 lay within 1000 to 5000 nM.

Consider `COc1cn2nc(CCC(C)(C)O)cc2cc1NC(=O)c1cccc(C(F)(F)F)n1` [Compound 3, N-[2-(3-hydroxy-3-methylbutyl)-6-methoxypyrazolo[1,5-a]pyridin-5-yl]-6-(trifluoromethyl)pyridine-2-carboxamide], for which the IC50 fell in the range of 1000 to 5000 nM.

With `CNC(=O)c1cn2nc(CCC(C)(C)O)cc2cc1NC(=O)c1cccc(C(F)(F)F)n1` [Compound 5, 2-(3-hydroxy-3-methylbutyl)-N-methyl-5-[[6-(trifluoromethyl)pyridine-2-carbonyl]amino]pyrazolo[1,5-a]pyridine-6-carboxamide], the IC50 is 1000 to 5000 nM.
